Measurements: PubChem BioAssay AID248 (DTP/NCI, 2004)
Several values for one entry are separate records, joined by “and”; a condition that tells them apart may be missing. Equal entries are not always repeated. Inconclusive results and toxic doses are left out.

Test system: L1210 leukemia ip in BDF1 mice, survival T/C
Assay: NCI In Vivo Anticancer Drug Screen. Data for tumor model L1210 Leukemia (intraperitoneal) in B6D2F1 (BDF1) mice
Conditions: endpoint: mean survival time, higher = longer survival
How it was run: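 Survival endpoint. Drug-treated group vs vehicle group, expressed as T divided by C. Tumor passaged by transplantation.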

[1] = dose: 50.0 mg/kg/injection, schedule: Q01DX001 (ip), vehicle: saline
[2] = dose: 100.0 mg/kg/injection, schedule: Q01DX001 (ip), vehicle: saline
[3] = dose: 200.0 mg/kg/injection, schedule: Q01DX001 (ip), vehicle: saline
[4] = dose: 400.0 mg/kg/injection, schedule: Q01DX001 (ip), vehicle: saline
[5] = dose: 100.0 mg/kg/injection, schedule: Q04DX003 (ip), vehicle: Klucel (hydroxypropylcellulose) (HPC)
[6] = dose: 200.0 mg/kg/injection, schedule: Q04DX003 (ip), vehicle: Klucel (hydroxypropylcellulose) (HPC)
[7] = dose: 400.0 mg/kg/injection, schedule: Q04DX003 (ip), vehicle: Klucel (hydroxypropylcellulose) (HPC)
[8] = dose: 100.0 mg/kg/injection, schedule: Q01DX009 (ip), vehicle: Klucel (hydroxypropylcellulose) (HPC)
[9] = dose: 200.0 mg/kg/injection, schedule: Q01DX009 (ip), vehicle: Klucel (hydroxypropylcellulose) (HPC)
[10] = dose: 400.0 mg/kg/injection, schedule: Q01DX009 (ip), vehicle: Klucel (hydroxypropylcellulose) (HPC)
[11] = dose: 25.0 mg/kg/injection, schedule: Q01DX009 (ip), vehicle: saline
[12] = dose: 50.0 mg/kg/injection, schedule: Q01DX009 (ip), vehicle: saline
[13] = dose: 100.0 mg/kg/injection, schedule: Q01DX009 (ip), vehicle: saline
[14] = dose: 400.0 mg/kg/injection, schedule: Q01DX009 (ip), vehicle: saline
[15] = dose: 50.0 mg/kg/injection, schedule: Q01DX009 (ip), vehicle: saline with Tween-80

O=C(c1ccccc1)C1C(C(=O)c2ccccc2)C(c2ccccc2)N(c2ccccc2)C1c1ccccc1 (stereo unspecified)
T/C [1]: 94 % of control | T/C [2]: 94 % of control | T/C [3]: 97 % of control | T/C [4]: 105 % of control

CCN1CCN2C(=O)OCC2C1 (stereo unspecified)
T/C (dose: 100.0 mg/kg/injection, schedule: Q04DX003 (sc), vehicle: olive oil, sesame oil, peanut oil): 94 % of control | T/C (dose: 200.0 mg/kg/injection, schedule: Q04DX003 (sc), vehicle: olive oil, sesame oil, peanut oil): 97 % of control | T/C (dose: 400.0 mg/kg/injection, schedule: Q04DX003 (sc), vehicle: olive oil, sesame oil, peanut oil): 92 % of control

CC1(C)C=C(C(Cl)c2ccccc2)C(=O)c2ccccc21 (stereo unspecified)
T/C [5]: 95 % of control | T/C [6]: 101 % of control | T/C [7]: 101 % of control

CCCCN(C)/N=N\c1[nH]ncc1C(N)=O
T/C (dose: 8.5 mg/kg/injection, schedule: Q01DX009 (ip), vehicle: saline with Tween-80): 119 % of control | T/C (dose: 13.0 mg/kg/injection, schedule: Q01DX009 (ip), vehicle: saline with Tween-80): 104 % of control | T/C (dose: 16.25 mg/kg/injection, schedule: Q01DX009 (ip), vehicle: saline with Tween-80): 115 % of control | T/C (dose: 20.0 mg/kg/injection, schedule: Q01DX009 (ip), vehicle: saline with Tween-80): 115 % of control | T/C (dose: 30.5 mg/kg/injection, schedule: Q04DX003 (ip), vehicle: saline with Tween-80): 100 % of control | T/C (dose: 44.0 mg/kg/injection, schedule: Q01DX009 (ip), vehicle: other): 165 % of control | T/C (dose: 61.0 mg/kg/injection, schedule: Q04DX003 (ip), vehicle: saline with Tween-80): 108 % of control | T/C (dose: 65.0 mg/kg/injection, schedule: Q01DX009 (ip), vehicle: saline with Tween-80): 157 % of control | T/C (dose: 66.0 mg/kg/injection, schedule: Q01DX009 (ip), vehicle: other): 184 % of control | T/C (dose: 77.25 mg/kg/injection, schedule: Q01DX001 (ip), vehicle: saline with Tween-80): 106 % of control | T/C (dose: 122.0 mg/kg/injection, schedule: Q04DX003 (ip), vehicle: saline with Tween-80): 119 % of control | T/C (dose: 150.0 mg/kg/injection, schedule: Q01DX009 (ip), vehicle: other): 114 % of control | T/C (dose: 154.5 mg/kg/injection, schedule: Q01DX001 (ip), vehicle: saline with Tween-80): 117 % of control | T/C (dose: 309.0 mg/kg/injection, schedule: Q01DX001 (ip), vehicle: saline with Tween-80): 114 % of control

O=C1C2C(C(=O)N1c1ccccc1)N2CCO (stereo unspecified)
T/C [8]: 107 % of control | T/C [5]: 113 % of control | T/C [9]: 103 % of control | T/C [6]: 108 % of control | T/C [10]: 97 % of control | T/C [7]: 113 % of control

CC1=NOC(=O)C1C(C)(C)C1C(=O)ON=C1C (stereo unspecified)
T/C (dose: 100.0 mg/kg/injection, schedule: Q04DX003 (ip), vehicle: saline with Tween-80): 101 % of control | T/C (dose: 200.0 mg/kg/injection, schedule: Q04DX003 (ip), vehicle: saline with Tween-80): 95 % of control | T/C (dose: 400.0 mg/kg/injection, schedule: Q04DX003 (ip), vehicle: saline with Tween-80): 101 % of control

CCOc1ccccc1/C=N/N=C(N)N
T/C (dose: 63.0 mg/kg/injection, schedule: Q01DX Z (ip), vehicle: carboxymethylcellulose (CMC)): 95 % of control | T/C (dose: 125.0 mg/kg/injection, schedule: Q01DX Z (ip), vehicle: carboxymethylcellulose (CMC)): 95 % of control

C1=CCC2OC2C1 (stereo unspecified)
T/C (dose: 100.0 mg/kg/injection, schedule: Q01DX001 (ip), vehicle: acetone): 103 % of control | T/C [8]: 105 % of control | T/C (dose: 200.0 mg/kg/injection, schedule: Q01DX001 (ip), vehicle: acetone): 95 % of control | T/C [9]: 103 % of control | T/C (dose: 400.0 mg/kg/injection, schedule: Q01DX001 (ip), vehicle: acetone): 94 % of control

Cc1ccc(NC(=O)Nc2cccc(C(F)(F)F)c2)cc1Cl
T/C (dose: 100.0 mg/kg/injection, schedule: Q01DX009 (ip), vehicle: gum acacia): 92 % of control | T/C (dose: 200.0 mg/kg/injection, schedule: Q01DX009 (ip), vehicle: gum acacia): 89 % of control | T/C (dose: 400.0 mg/kg/injection, schedule: Q01DX009 (ip), vehicle: gum acacia): 91 % of control

CC(C)N(CCCOC(=O)c1ccc(N)cc1)C(C)C
T/C [11]: 95 % of control | T/C [12]: 109 % of control | T/C [13]: 106 % of control | T/C (dose: 100.0 mg/kg/injection, schedule: Q04DX003 (ip), vehicle: saline): 105 % of control

CCC(CC)(CC)C(OC(=O)c1ccccc1C(=O)O)c1ccccc1 (stereo unspecified)
T/C [1]: 95 % of control | T/C [2]: 95 % of control | T/C [3]: 97 % of control | T/C [4]: 88 % of control

CC1(C)N=C(N)N=C(N)N1c1ccc(CC(=O)Nc2cccc(S(=O)(=O)F)c2)cc1
T/C (dose: 6.25 mg/kg/injection, schedule: Q#A X018 (ip), vehicle: saline): 105 % of control | T/C (dose: 12.5 mg/kg/injection, schedule: Q01DX009 (ip), vehicle: saline): 103 % of control | T/C (dose: 12.5 mg/kg/injection, schedule: Q#A X018 (ip), vehicle: saline): 111 % of control | T/C [11]: 111 % of control | T/C [12]: 117 % of control and 118 % of control | T/C (dose: 50.0 mg/kg/injection, schedule: Q#A X018 (ip), vehicle: saline): 118 % of control | T/C [2]: 100 % of control | T/C [3]: 102 % of control

CC1=COC2CCCCC2O1 (stereo unspecified) (tested in a mixture with another compound)
T/C (dose: 50.0 mg/kg/injection, schedule: Q01DX009 (ip), vehicle: acetone): 92 % of control | T/C (dose: 100.0 mg/kg/injection, schedule: Q01DX009 (ip), vehicle: acetone): 95 % of control | T/C (dose: 100.0 mg/kg/injection, schedule: Q04DX003 (ip), vehicle: acetone): 103 % of control and 94 % of control | T/C (dose: 200.0 mg/kg/injection, schedule: Q04DX003 (ip), vehicle: acetone): 104 % of control and 96 % of control and 100 % of control | T/C (dose: 400.0 mg/kg/injection, schedule: Q04DX003 (ip), vehicle: acetone): 96 % of control and 89 % of control

C1CN(P(N2CCOCC2)N2CCOCC2)CCO1
T/C [13]: 104 % of control | T/C (dose: 200.0 mg/kg/injection, schedule: Q01DX009 (ip), vehicle: saline): 98 % of control | T/C [14]: 98 % of control

CC(=O)OC1CC(n2cc(C)c(=O)[nH]c2=O)OC1COP(=O)(N1CC1)N1CC1 (stereo unspecified)
T/C (dose: 50.0 mg/kg/injection, schedule: Q04DX002 (ip), vehicle: saline): 107 % of control | T/C (dose: 200.0 mg/kg/injection, schedule: Q04DX002 (ip), vehicle: saline): 112 % of control

C=CCOc1ccccc1Cl
T/C [8]: 110 % of control | T/C [5]: 94 % of control | T/C [9]: 88 % of control | T/C [6]: 106 % of control | T/C [10]: 106 % of control | T/C [7]: 103 % of control

Nc1ccc(OCCCc2c(N)nc(N)nc2N)c(Cl)c1
T/C [5]: 96 % of control | T/C [6]: 94 % of control | T/C [7]: 97 % of control

CCCCCCCCCCCCOS(=O)(=O)O
T/C [2]: 98 % of control | T/C [3]: 95 % of control | T/C [4]: 98 % of control

CC(C)C/C=C/C1CCCCC1 (tested in a mixture with another compound)
T/C [15]: 101 % of control | T/C (dose: 100.0 mg/kg/injection, schedule: Q01DX009 (ip), vehicle: saline with Tween-80): 93 % of control | T/C (dose: 200.0 mg/kg/injection, schedule: Q01DX009 (ip), vehicle: saline with Tween-80): 97 % of control

O=C1/C(=C\c2ccccc2)COC/C1=C\c1ccccc1
T/C [13]: 94 % of control | T/C [14]: 87 % of control

COC(=O)Nc1cccc2c1-c1ccccc1C2=O
T/C (dose: 50.0 mg/kg/injection, schedule: Q04DX003 (ip), vehicle: Klucel (hydroxypropylcellulose) (HPC)): 95 % of control | T/C [5]: 95 % of control | T/C [6]: 100 % of control

NS(=O)(=O)O
T/C (dose: 12.5 mg/kg/injection, schedule: Q01DX009 (ip), vehicle: saline with Tween-80): 103 % of control | T/C (dose: 25.0 mg/kg/injection, schedule: Q01DX009 (ip), vehicle: saline with Tween-80): 95 % of control | T/C [15]: 89 % of control

O=[N+]([O-])c1cccs1
T/C (dose: 50.0 mg/kg/injection, schedule: Q01DX009 (ip), vehicle: Klucel (hydroxypropylcellulose) (HPC)): 97 % of control | T/C [8]: 108 % of control | T/C (dose: 100.0 mg/kg/injection, schedule: Q04DX003 (ip), vehicle: other): 104 % of control | T/C (dose: 200.0 mg/kg/injection, schedule: Q04DX003 (ip), vehicle: other): 103 % of control
